Test results: patent US11998619B2, “Compound, antiinflammatory drug comprising the compound and cyclooxygenase-2 inhibitor comprising the compound” (priority 2018, dated 2024)

Tests used:
COX-2 [1] = test: Western blotting of COX-2 expression after LPS treatment; format: cell-based; conditions: Western blot, FIG. 4
COX-2 [2] = test: Immunofluorescence of COX-2 in LPS-treated cells; conditions: FIG. 3
Description: Anti-inflammatory properties were evaluated based on in vitro experiments. Specifically, cells were treated with lipopolysaccharide (LPS) as an inflammation-inducing substance, thereby to induce an inflammatory reaction. […] Then, immunofluorescence images thereof were taken to identify COX-2 inhibitory ability thereof in the cells.
The green fluorescence indicates the presence of COX-2 which is induced by an inflammatory reaction in cells via treatment with LPS.

cyclooxygenase-2 (COX-2) = test: Western blot of COX-2 in tissue at the cerebral infarction site, MCAO-R model; format: in vivo, Sprague Dawley (SD) rats; conditions: FIG. 5C
[3] = tested on: MCAO-R stroke animal model; test: Cerebral infarction in MCAO-R stroke animal model (TTC staining); format: in vivo, Sprague Dawley (SD) rats; conditions: 24 hours after reperfusion; FIG. 5B

| Structure (SMILES) | COX-2 expression inhibition (COX-2 band) (COX-2 [1]) | COX-2 inhibitory ability (green fluorescence, COX-2 positive cells) (COX-2 [2]) | inhibition of COX-2 protein amount at cerebral infarction site (cyclooxygenase-2 (COX-2)) | inhibition of cerebral infarction [3] |
| --- | --- | --- | --- | --- |
| O=C(O)CCC(=O)c1ccc(-c2ccccc2)cc1 [fenbufen] | do not achieve COX-2 inhibition effect |  |  |  |
| O=C(O)c1cc(-c2ccc(F)cc2F)ccc1O [diflunisal] | do not achieve COX-2 inhibition effect | slightly lower than that in cells (LPS) treated with only LPS | exhibit inhibition of COX-2 activity | significantly inhibit the cerebral infarction |
| CC1=C(CC(=O)O)c2cc(F)ccc2/C1=C\c1ccc([S+](C)[O-])cc1 (stereo not shown) [sulindac] | has COX-2 inhibition ability | excellent COX-2 inhibition ability |  |  |
